From PMC8272215 (2021)

Experiments:
[1] = test system: poly A-poly U (RNA, polymer) A/U; assay: fluorescent indicator displacement (DAPI); settings: Na+ (50 mM sodium cacodylate); pH 7.4; DAPI displaced; polynucleotide 1-2 × 10^-5 M
[2] = test system: poly A-poly U (RNA, polymer) A/U; assay: fluorescent indicator displacement (EB); settings: Na+ (50 mM sodium cacodylate); pH 7.4; ethidium bromide displaced; polynucleotide 3-4 × 10^-5 M
[3] = test system: poly A-poly U (RNA, polymer) A/U; assay: UV melting at 260 nm; settings: Na+ (50 mM sodium cacodylate); pH 7.4; r = [ligand]/[polynucleotide] = 0.05; caption says ctDNA, text b32 says poly A-poly U; per base

Structure (SMILES)	IC50 [1]	IC50 [2]	ΔTm [3]
NCCN(CCN)CCCNCCN1CCNCc2cccc(n2)CNCC1	0.85 [ligand]/[polynucleotide] ratio (dimensionless)	0.63 [ligand]/[polynucleotide] ratio (dimensionless)	21.3 °C
c1cc2nc(c1)CNCCN(CCCNCCN1CCNCc3cccc(n3)CNCC1)CCNC2	0.45 [ligand]/[polynucleotide] ratio (dimensionless)	0.86 [ligand]/[polynucleotide] ratio (dimensionless)	17.1 °C
